Values quoted from earlier work in patent publication US8741563B2, “Metronidazole resistance in trichomonas vaginalis and single nucleotide polymorphisms” (priority 2011, dated 2014).

Test system: Trichomonas vaginalis
Details: reported effectiveness of metronidazole treatment

Cc1ncc([N+](=O)[O-])n1CCO [Metronidazole]
treatment effective: 85-95%
